Test system: external hemorrhoids in rats
Experiment: External hemorrhoid model in rats (acetic acid)
Format: in vivo, SD rats
From the text: • (1) Blank control group (7 rats) • (2) Hemorrhoid model group (10 rats) • (3) Hemorrhoid model group+positive control drug (Mayinglong Hemorrhoid Ointment) group (8 rats) • (4) Hemorrhoid model group+vehicle treatment (Gel excipient) (8 rats) • (5) Hemorrhoids model group+0.1% MDI-1228 gel preparation group (8 rats) • (6) Hemorrhoids model group+0.3% MDI-1228 gel preparation group (8 rats) • (7) Hemorrhoids model group+1% MDI-1228 gel preparation group (8 rats) • (8) Hemorrhoids model group+3% MDI-1228 gel preparation group (8 rats) • Experimental environment: Temperature 20° C.-26° C., humidity 40%-70%
Apart from the normal control group, all groups were treated by first disinfecting the perianal skin. A 75% acetic acid solution was prepared and injected subcutaneously in a scattered pattern around the anus of each rat at a dose of 0.05 ml.
The recipe and preparation method for 1% MDI-1228 gel were as follows:
The control group and model group received no treatment (no therapy). Administration begined 24 hours after the model induction was successful. Group 3) was administrated with Mayinglong Hemorrhoid Ointment (7.5 g/Kg), three times, 10 min each time; Group 4) was administrated with a blank gel forming agent (1 g/Kg) around the anus; Groups 5)-8) were administrated with different concentrations of MDI-1228 compound gel preparation (1 g/Kg) around the anus, twice daily, 10 min each time, followed by covering with plastic wrap and fixing with tape to prevent the drug from falling off and affecting efficacy. After 6 hours, the dressing was removed, and the application site was cleaned with normal saline. The administration was continued for 11 days.
Observe the healing of the ulcer site on days 3, 5, 7, 9, and 11 of administration, and assess the ulcer score (scoring criteria: ulcer exudate present=1 point; minimal ulcer exudate=2 points; scab present, nearly healed=3 points; completely healed=4 points).
On an 11-day administration, animals were euthanized by inhalation of excess carbon dioxide, and perianal rectal tissue was taken for HE staining, and serum was taken for ELISA detection.
Tissue samples from animal Rectal were excised, fixed in 10% neutral formalin buffer solution, dehydrated, embedded in paraffin, and sectioned and HE stained for observation of rectal histopathological morphology changes. The reagents and instruments required for HE staining included: Hematoxylin staining solution (AR11800-1, BOSTER); Eosin staining solution (AR11800-2, BOSTER); Ultra-clean advanced mounting medium (YZB, BASO); Scott's blueing solution (G1865, Solarbio), etc. Medication refrigerator (BYC-310, Shandong Bokai Biotech); Microscope (CX41 OLYMPUS); Microtome (BQ-318D, Berne); Electric heating blast drying oven (DHG-9070A, Hengke Scientific Instrument Co., Ltd.). The taken tissue was rinsed with running water for several hours, dehydrated through a series of ethanol solutions (70%, 80%, 90%), and then treated with a mixture of pure alcohol and xylene at a ratio of 1:1 for 15 minutes, followed by xylene I for 15 minutes and xylene II for 15 minutes (until transparent). The tissue was then placed in a mixture of xylene and paraffin at a ratio of 1:1 for 15 minutes, followed by immersion with paraffin I and paraffin 11 each for 50-60 minutes. The tissue was embedded in paraffin and sectioned, and the sections were dried, dewaxed and hydrated in distilled water. […]

Structure (SMILES): CCc1cc(O)c(F)cc1-c1ccc2c(-c3nc4c([nH]3)CN(C(=O)N3CC[C@H](O)C3)C4)n[nH]c2c1 [MDI-1228, (S)-(2-(6-(2-ethyl-5-fluoro-4-hydroxyphenyl)-1H-indazol-3-yl)-4,6-dihydropyrrolo[3,4-d]imidazol-5-(1H)-yl)(3-hydroxylpyrrolidin-1-yl)ketone]
- TNF-α expression in blood (ELISA) (0.1%, 0.3%, 1%, 3% MDI-1228 gel, positive control drug, vs. model group): could all downregulate the expression of TNF-α
- Perianal ulcer healing score (1% MDI-1228 gel 1 g/Kg twice daily, vs. model group): significant therapeutic effect after a 7-days administration
- Perianal rectal tissue HE staining pathological score (3% MDI-1228 gel): the best effect
- Perianal rectal tissue HE staining pathological score (MDI-1228 gel at concentrations of 0.3% or more): more significant
- Alleviation and treatment of external hemorrhoids (MDI-1228 gel preparations at different concentrations): can effectively alleviate and treat external hemorrhoids in rats

Source: US20250387388A1, “COMPOUND AS TRK INHIBITOR AND/OR RET INHIBITOR AND USE THEREOF” (Medinno Pharmaceutical Technology (Zhuhai) Co., Ltd., priority 2022, published 2025)
